Measurements: publication PMC5978685, “Design, Synthesis, and Evaluation of Novel Immunomodulatory Small Molecules Targeting the CD40–CD154 Costimulatory Protein-Protein Interaction” (Molecules : A Journal of Synthetic Chemistry and Natural …, 2018)
Read-outs that look alike come from different tables or passages of the source.

How the values were obtained:
[1] = biological target: T1, TNF-R1–TNFα (Homo sapiens, UniProt P01375); test: cell-free ELISA-type binding inhibition assay, TNF-R1–TNFα; details: cell-free TNF-R1–TNFα binding inhibition; read-out: TNF IC50
T1 construct: purchased Enzo Life Sciences
T1 sequence (P01375 85-233 limits assumed): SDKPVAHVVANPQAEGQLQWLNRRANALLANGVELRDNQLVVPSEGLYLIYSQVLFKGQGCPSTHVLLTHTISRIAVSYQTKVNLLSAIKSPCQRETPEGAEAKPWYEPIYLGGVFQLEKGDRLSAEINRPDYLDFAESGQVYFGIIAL
Method: (§1) In parallel with the CD40–CD154 assay, the ability of these compounds to inhibit other TNFSFR–TNFSF PPIs, including OX40–OX40L, BAFFR–BAFF, and TNF-R1–TNF-α, was also assessed (Figure 3B–D).
(§2) Binding inhibition assays were performed in a 96-well cell-free format as described before. Briefly, microtiter plates (Nunc F Maxisorp, 96-well; Thermo Fisher Scientific, Waltham, MA, USA) were coated overnight at 4 °C with 100 μL/well of Fc-conjugated receptors diluted in PBS pH 7.2. This was followed by blocking with 200 μL/well of blocking solution (PBS pH 7.2, 0.05% Tween-20, 1% BSA) for 1 h at RT. Then, plates were washed twice using washing solution (PBS pH 7.4, 0.05% Tween-20) and tapped dry before the addition of the appropriate FLAG tagged ligands along with different concentrations of tested dyes diluted in binding buffer (100 mM HEPES, 0.005% BSA pH 7.2) to give a total volume of 100 μL/well. After 1 h incubation, three washes were conducted, and anti-FLAG HRP conjugate was used to detect the bound FLAG-tagged ligand. Plates were washed four times before the addition of 120 μL/well of HRP substrate TMB (3,3′,5,5′-tetramethylbenzidine) and kept in the dark for up to 15 min. The reaction was stopped using 30 μL of 1M H2SO4, and the absorbance value was read at 450 nm. The concentrations of receptors used were 0.3 μg/mL for CD40, TNF-R1, and BAFFR; 0.6 μg/mL for OX40. The concentrations of the ligands were fixed at 0.02 μg/mL for CD154 and TNF-α, 0.06 μg/mL for OX40L, and 0.03 μg/mL for BAFF. These values were selected following preliminary testing to optimize response (i.e., to produce a high-enough signal at conditions close to half-maximal response, EC50). […] To verify that inhibition is not due to colloidal aggregation, CD40 binding inhibition was also measured in the presence of the non-ionic detergent Triton-X 100 (0.01%), as recommended for the detection of such effects.
(§3) All binding inhibition and cell assays were tested in duplicate or triplicate per plates, and assays were performed as at least three independent experiments. As before, binding and cytotoxicity data were converted to percent inhibition and fitted with standard log inhibitor vs. normalized response models using nonlinear regression in GraphPad Prism (GraphPad, La Jolla, CA, USA) to establish half-maximal (median) inhibitory concentration (IC50) or median lethal concentration (LC50) values. Cell assay data were fitted with a similar model that also allowed for a variable slope using the log inhibitor vs. normalized response (variable slope) model from Prism with a Hill slope (n) shared across all compounds. Cell assays and draining lymph node data were analyzed by one-way repeated-measures analysis of variance (ANOVA) followed by Dunnett’s multiple comparison test as a post hoc test for individual differences using GraphPad Prism and a significance level of p < 0.05 for all comparisons.
(§4) Data are (counterclockwise) for human CD40–CD154 (CD40L) (A); OX40–OX40L (B); BAFFR–BAFF (C); and TNF-R1–TNFα (D) and were fitted with standard binding curves. Data are average ± SD (normalized to percent binding) for n = 3 independent experiments with duplicates for each condition.

[2] = solubilization in the in vivo dosing vehicle; type: physicochemical; details: vehicle 20% HPβCD
[3] = biological target: T2, CD40–CD154 (CD40L) (Homo sapiens, UniProt P29965); test: cell-free ELISA-type binding inhibition assay, CD40–CD154; details: for selectivity toward CD40–CD154 against all other PPIs tested: vs OX40–OX40L, BAFFR–BAFF, TNF-R1–TNF-α
T2 construct: purchased Enzo Life Sciences
T2 sequence (P29965 116-261 limits assumed): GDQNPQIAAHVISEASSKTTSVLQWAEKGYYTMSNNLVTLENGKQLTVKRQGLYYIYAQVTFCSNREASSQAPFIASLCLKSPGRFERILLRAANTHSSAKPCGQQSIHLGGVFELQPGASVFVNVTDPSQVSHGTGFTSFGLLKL
From the text: As a first assessment, the CD40–CD154 inhibitory activity of compounds 6–19 (Figure 2, Table 1) was quantified using a cell-free in vitro binding inhibition assay as described before. Data fitted with typical sigmoidal concentration dependence curves (log inhibitor versus response model in GraphPad Prism, Hill slope n = 1) are summarized in Figure 3A. […] Polymolecular conglomeration and/or aggregation is often a cause of promiscuous inhibition in screening assays. Therefore, just as in our previous work, we checked for this, and we confirmed for several compounds that inhibition due to aggregation is not the case by retesting inhibitory activity in the presence of a non-ionic detergent (Triton-X 100, 0.01%) as recommended for the detection of such effects.
as §2, §3, §4

[4] = system: CD154-induced NF-κB activation in CD40 sensor cells; test: CD40 sensor cell assay (HEK Blue CD40, SEAP reporter); type: cell-based, human
From the text: (§5) As further confirmation of the inhibitory activity of our compounds, a cell-based assay was used with sensor cells (HEK Blue CD40) containing a secreted embryonic alkaline phosphatase (SEAP) reporter gene under the control of a promoter fused to a NF-κB binding site and transfected with CD40. […] For all tested compounds, the corresponding IC50 values are higher than those determined in the cell-free binding inhibition assay (Table 1) representing a loss of activity which is likely due to non-specific binding on account of the presence of proteins and cells in the assay, as well as hydrophobicity-related problems. Cytotoxicities were also evaluated in these same cells and at the same concentrations using a standard MTS assay to ensure that effects are present at non-toxic concentration levels.
CD40 expressing NF-κB sensor cells (HEK Blue, InvivoGen, San Diego, CA, USA) were used to assess the ability of the present compounds to block CD154-induced activation as described before. Briefly, cells were maintained in DMEM at 80% confluence for each experiment. Cells were trypsinized and re-suspended in the same medium without FBS and seeded on 96-well microtiter plates at a density of 50,000 cells/well in the absence and presence of various concentrations of compounds diluted in the same media. For ligand mediated stimulation, a concentration of recombinant human CD154 (100 ng/mL) found to induce an optimal response was maintained in the wells for this purpose. After 24 h of incubation at 37 °C, 40 μL supernatant of each well were taken and added to another 96-well microtiter plate containing 160 μL/well of QUANTI-Blue (InvivoGen). The level of SEAP was determined after 1 h of incubation at 37 °C by reading at 650 nm using a spectrophotometer. A monoclonal anti-human CD154 antibody (clone 40804, R&D Systems, Minneapolis, MN, USA) was used as a positive control at 240 nM concentration.
as §3
Figure 5 Inhibition of CD154-induced NF-κB activation in CD40 sensor cells by compounds 6, 14, 15, and 18 in a concentration-dependent manner. Tartrazine (TZ) and an anti-CD154 antibody (mAb; single dose, 240 nM) were included as negative and positive controls, respectively. Data are average ± SD (normalized to CD154-activated cells alone) for n = 2 independent experiments with duplicates for each condition.

[5] = biological target: T3, BAFFR–BAFF (Homo sapiens, UniProt Q9Y275); test: cell-free ELISA-type binding inhibition assay, BAFFR–BAFF
T3 construct: purchased Enzo Life Sciences
Method: as §1, §2, §3, §4

[6] = biological target: T4, OX40–OX40L (Homo sapiens, UniProt P23510); test: cell-free ELISA-type binding inhibition assay, OX40–OX40L
T4 construct: purchased Enzo Life Sciences
T4 sequence (P23510 51-183 limits assumed): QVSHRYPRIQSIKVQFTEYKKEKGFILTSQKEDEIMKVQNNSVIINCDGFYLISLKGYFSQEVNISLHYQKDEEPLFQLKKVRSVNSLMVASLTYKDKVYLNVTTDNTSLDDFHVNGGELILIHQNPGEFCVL
Method: as §1, §2, §3, §4

[7] = MTS cytotoxicity assay in HEK Blue cells; type: cell-based; details: human, HEK Blue CD40 sensor cells; HEK Blue cells, 24 h; read-out: LC50 (cytotoxicity, MTS)
From the text: as §5
(§6) For the MTS assay, HEK Blue cells were cultured and prepared in the same manner as in the CD40 sensor assay. Then cells were added to a 96-well microtiter plate at a density of 50,000 cells/well in the absence or presence of various concentrations of compounds diluted in the same media, without the addition of CD154. The plate was incubated at 37 °C for 24 h. 20 µL per well of MTS, 3-(4,5-dimethylthiazol-2-yl)-5-(3-carboxymethoxyphenyl)-2-(4-sulfophenyl)-2H-tetrazolium, (Promega, Madison, WI, USA) was added to the culture after treatments, and cells were incubated at 37 °C for 4 h. Formazan levels were measured using a plate reader at 490 nm.
as §3

[8] = system: HEK Blue cells; test: MTS cytotoxicity assay in HEK Blue cells; type: cell-based; details: LC50 (MTS) / NF-κB IC50 in sensor cells
From the text: as §5, §6, §3

[9] = biological target: T5, CD154 (CD40L) (Homo sapiens, UniProt P29965); test: protein thermal shift (differential scanning fluorimetry), CD154; type: binding; details: 25 μM of 11, 10 μM of DRI-C21045; CD154 0.05 mg/mL
T5 construct: purchased Peprotech
T5 sequence (P29965 113-261 limits assumed): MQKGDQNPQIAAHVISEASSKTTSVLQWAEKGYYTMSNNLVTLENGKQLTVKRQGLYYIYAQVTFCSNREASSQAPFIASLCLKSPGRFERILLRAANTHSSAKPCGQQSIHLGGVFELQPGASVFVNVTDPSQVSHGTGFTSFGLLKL
From the text: (§7) A protein thermal shift assay (differential scanning fluorimetry, also known as ThermoFluor assay) was used to establish whether our small-molecule probes bind to CD40 or CD154 (CD40L). This technique quantifies the shift in protein stability due to ligand binding via use of a dye whose fluorescence increases when exposed to hydrophobic surfaces, which happens as the protein unfolds exposing its normally buried hydrophobic core residues. […]
(§8) This assay was used following standard protocols as described in the literature to establish whether CD154 or CD40 is the binding partner of our compounds. Sypro orange (ThermoFisher; Waltham, MA, USA) was used as the fluorescence detection dye with an RT-PCR machine (StepOnePlus, Applied Biosystems (Foster City, CA, USA); detection on ROX channel, 575/602 nm) programmed to equilibrate samples at 25 °C for 90 s and then increase temperature to 99 °C by 0.4 °C every 24 s before taking a reading. Melting point of the protein is considered the lowest point of the first derivative plot, as calculated by the software included with the RT-PCR machine. Optimal concentrations were determined by performing a series of preliminary scans at various concentrations of protein, compound, and dye (CD154 0.05 mg/mL, CD40-Fc 0.1 mg/mL, Sypro orange 4×, 100 mM HEPES buffer, 10 μM of DRI-C21045 and 25 μM of 11). […]

[10] = biological target: T6, CD40 (Homo sapiens, UniProt P25942); test: protein thermal shift (differential scanning fluorimetry), CD40; type: binding; details: 25 μM of 11, 10 μM of DRI-C21045; CD40-Fc 0.1 mg/mL
T6 construct: purchased Enzo Life Sciences
T6 sequence (P25942 21-277): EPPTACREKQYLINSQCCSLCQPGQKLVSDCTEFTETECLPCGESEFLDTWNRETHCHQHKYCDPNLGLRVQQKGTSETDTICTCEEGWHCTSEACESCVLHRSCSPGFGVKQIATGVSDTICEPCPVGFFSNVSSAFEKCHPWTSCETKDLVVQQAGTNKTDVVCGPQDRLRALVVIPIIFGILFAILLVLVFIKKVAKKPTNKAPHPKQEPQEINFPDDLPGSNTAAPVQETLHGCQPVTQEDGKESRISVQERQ
From the text: as §7, §8

[11] = biological target: T2, CD40–CD154 (CD40L); set-up: method as in PMID 29024591; details: read-out: CD40–CD154 IC50 (previous work); cited from earlier work
[12] = cell-free CD40–CD154 binding inhibition, read-out: CD40 IC50

shift in melting temperature (Tm) of CD154 [9] | shift in melting temperature (Tm) of CD40 [10] | IC50 ([3]; cell-free binding inhibition assay, read-out: CD40–CD154 IC50) | Structure (SMILES) | IC50 [1] | solubility in the vehicle for in vivo dosing [2] | IC50 [3, 12] | selectivity toward CD40–CD154 against all other PPIs tested [3] | selectivity toward CD40–CD154 against all other PPIs tested ([3]; listed as DRI-C21091) | inhibition of CD154-induced NF-κB activation (qualitative) [4] | IC50 ([4]; Homo sapiens, CD154 100 ng/mL, 24 h) | IC50 [5] | IC50 [6] | CC50 at 24 h [7] | therapeutic index, TI = LC50/IC50 [8] | IC50 [11]
– | – | – | O=C(Nc1ccc(-c2ccc(C(=O)Nc3cccc4cccc(S(=O)(=O)O)c34)cc2)cc1)c1ccc(-c2ccc([N+](=O)[O-])cc2)cc1 [Compound 14, 8-(4′-(4′-Nitro-[1,1′-biphenyl]-4-carboxamido)-[1,1′-biphenyl]-4-carboxamido)naphthalene-1-sulfonic acid] | 70.3 µM | could not be sufficiently solubilized in the vehicle | 0.02 µM | > 30 fold | more than thirty-fold | concentration-dependent inhibition | 11.1 µM | 0.784 µM | 6.88 µM | 55.6 µM | 5 | –
caused clear shifts | not for CD40 | – | COC(=O)c1ccc(C(=O)Nc2ccc(-c3ccc(C(=O)Nc4cccc5cccc(S(=O)(=O)O)c45)cc3)cc2)cc1 [DRI-C21045, reference compound] | – | – | – | – | – | – | – | – | – | – | – | 0.17 µM
caused clear shifts | not for CD40 | 60 µM | COC(=O)c1ccc(C(=O)Nc2ccc(-c3ccc(C(=O)Nc4ccc(S(=O)(=O)O)c5cccc(S(=O)(=O)O)c45)cc3)cc2)cc1 [Compound 11, 4-(4′-(4-(Methoxycarbonyl)benzamido)-[1,1′-biphenyl]-4-carboxamido)naphthalene-1,5-disulfonic acid] | 456 µM | – | 60.1 µM | – | – | – | – | 540 µM | 120 µM | – | – | –
